Values joined by “and” are separate entries in the source; they are usually repeats but may differ in a detail not shown here. Equal entries are not always repeated. Inconclusive results and toxic doses are left out. Starred links: 1 amine or outer side, 2 acyl side, 3 side chain; linkers in the order of their positions; H or OH if unused. Positions of bridges follow the written chain, without caps; N, C: chain ends. Non-standard residues stand in square brackets, D forms with d. Residues, ends and D or L forms follow the SMILES beside them. Chains are numbered I, II in the order given. Actinocin(9to1) = Cc1c2oc3c(C)ccc(C(=O)[*:1])c3nc-2c(C(=O)[*:2])c(N)c1=O; NMeV = CN[CH](C(=O)O)C(C)C; Aze = O=C(O)[CH]1CCN1; Sar = CNCC(=O)O
Test system: BDF1 mice, P388/ADR leukemia ip, median survival T/C
Assay: NCI In Vivo Anticancer Drug Screen. Data for tumor model P388 Leukemia resistant to Adriamycin; NSC 123127, Developed at Scr 06 and 41 (intraperitoneal) in B6D2F1 (BDF1) mice
Settings: endpoint: median survival time, higher = longer survival
Description: The antitumor activity of compounds was measured in mice bearing transplantable tumors. Survival or tumor size were measured and the results are expressed as the measurement made in the treated group (T) divided by the measurement made in the vehicle treated control group (C). The tumor model used in this assay is P388 Leukemia resistant to Adriamycin; NSC 123127, Developed at Scr 06 and 41 (intraperitoneal) in B6D2F1 (BDF1) mice

CC(=O)C1(O)Cc2c(O)c3c(c(O)c2C(OC2CC(N)C(O)C(C)O2)C1)C(=O)c1ccccc1C3=O (stereo not drawn)
T/C (dose: 324.0 micrograms/kg/injection, schedule: Q04DX003 (ip), vehicle: water): 119 % of control | T/C (dose: 540.0 micrograms/kg/injection, schedule: Q04DX003 (ip), vehicle: water): 122 % of control | T/C (dose: 900.0 micrograms/kg/injection, schedule: Q04DX003 (ip), vehicle: water): 122 % of control | T/C (dose: 1500.0 micrograms/kg/injection, schedule: Q04DX003 (ip), vehicle: water): 98 % of control

CC(=O)[C@]1(O)Cc2c(O)c3c(c(O)c2[C@@H](OC2CC(N)C(O)C(C)O2)C1)C(=O)c1c(O)cccc1C3=O (stereo partly drawn)
T/C (dose: 0.32 mg/kg/injection, schedule: Q04DX003 (ip), vehicle: water): 108 % of control | T/C (dose: 0.39 mg/kg/injection, schedule: Q04DX003 (ip), vehicle: water): 118 % of control | T/C (dose: 0.54 mg/kg/injection, schedule: Q04DX003 (ip), vehicle: water): 88 % of control | T/C (dose: 0.65 mg/kg/injection, schedule: Q04DX003 (ip), vehicle: water): 123 % of control

COC1C(O)C(C)OC(OC2C(Oc3cccc4c(O)c5c(=O)oc6ccc(C)c7c(=O)oc(c34)c5c67)OC(C)C(O)C2O)C1O (stereo not drawn)
T/C (dose: 43.2 mg/kg/injection, schedule: Q04DX003 (ip), vehicle: Klucel (hydroxypropylcellulose) (HPC)): 87 % of control

CC[C@H]1CN2CCc3cc(OC)c(OC)cc3[C@@H]2C[C@@H]1C[C@H]1NCCc2cc(OC)c(OC)cc21
T/C (dose: 7.78 mg/kg/injection, schedule: Q04DX003 (ip), vehicle: saline): 106 % of control | T/C (dose: 9.0 mg/kg/injection, schedule: Q04DX003 (ip), vehicle: saline): 94 % of control | T/C (dose: 13.0 mg/kg/injection, schedule: Q04DX003 (ip), vehicle: saline): 114 % of control | T/C (dose: 18.0 mg/kg/injection, schedule: Q04DX003 (ip), vehicle: saline): 100 % of control | T/C (dose: 21.6 mg/kg/injection, schedule: Q04DX003 (ip), vehicle: saline): 106 % of control

Cc1c(N)nc([C@H](CC(N)=O)NC[C@H](N)C(N)=O)nc1C(=O)N[C@H](C(=O)N[C@H](C)[C@@H](O)[C@H](C)C(=O)N[C@H](C(=O)NCCc1nc(-c2nc(C(=O)NCCC[S+](C)C)cs2)cs1)[C@@H](C)O)C(OC1OC(CO)C(O)C(O)C1OC1OC(CO)C(O)C(OC(N)=O)C1O)c1cnc[nH]1 (stereo partly drawn)
T/C (dose: 2.88 mg/kg/injection, schedule: Q01DX009 (ip), vehicle: saline): 105 % of control | T/C (dose: 4.8 mg/kg/injection, schedule: Q01DX009 (ip), vehicle: saline): 107 % of control | T/C (dose: 6.5 mg/kg/injection, schedule: Q01DX009 (ip), vehicle: saline): 110 % of control | T/C (dose: 8.0 mg/kg/injection, schedule: Q01DX009 (ip), vehicle: saline): 105 % of control | T/C (dose: 10.8 mg/kg/injection, schedule: Q01DX009 (ip), vehicle: saline): 93 % of control | T/C (dose: 13.33 mg/kg/injection, schedule: Q01DX009 (ip), vehicle: saline): 103 % of control | T/C (dose: 13.33 mg/kg/injection, schedule: Q04DX003 (ip), vehicle: saline): 103 % of control | T/C (dose: 18.0 mg/kg/injection, schedule: Q01DX009 (ip), vehicle: saline): 95 % of control | T/C (dose: 22.22 mg/kg/injection, schedule: Q04DX003 (ip), vehicle: saline): 110 % of control | T/C (dose: 30.0 mg/kg/injection, schedule: Q01DX009 (ip), vehicle: saline): 90 % of control | T/C (dose: 37.0 mg/kg/injection, schedule: Q04DX003 (ip), vehicle: saline): 98 % of control

COc1cc([C@@H]2c3cc4c(cc3[C@@H](OC3OC5COC(C)OC5C(O)C3O)[C@H]3COC(=O)[C@H]23)OCO4)cc(OC)c1O (stereo partly drawn)
T/C (dose: 18.0 mg/kg/injection, schedule: Q04DX003 (ip), vehicle: Klucel (hydroxypropylcellulose) (HPC)): 110 % of control | T/C (dose: 30.0 mg/kg/injection, schedule: Q04DX003 (ip), vehicle: Klucel (hydroxypropylcellulose) (HPC)): 119 % of control | T/C (dose: 50.0 mg/kg/injection, schedule: Q04DX003 (ip), vehicle: Klucel (hydroxypropylcellulose) (HPC)): 112 % of control

CO[C@H]1C[C@](C)(O)Cc2cc3c(c(O)c21)C(=O)c1c(O)cc2c(c1C3=O)O[C@@H]1O[C@@]2(C)[C@H](O)[C@@H](N(C)C)[C@@H]1O
T/C (dose: 18.0 mg/kg/injection, schedule: Q04DX003 (ip), vehicle: lactate): 112 % of control | T/C (dose: 30.0 mg/kg/injection, schedule: Q04DX003 (ip), vehicle: lactate): 116 % of control | T/C (dose: 50.0 mg/kg/injection, schedule: Q04DX003 (ip), vehicle: lactate): 94 % of control

O=C1c2ccccc2C(=O)c2c(NCCNCCO)ccc(NCCNCCO)c21
T/C (dose: 13.0 mg/kg/injection, schedule: Q04DX003 (ip), vehicle: saline + alcohol): 105 % of control | T/C (dose: 21.6 mg/kg/injection, schedule: Q04DX003 (ip), vehicle: saline + alcohol): 104 % of control | T/C (dose: 36.0 mg/kg/injection, schedule: Q04DX003 (ip), vehicle: saline + alcohol): 98 % of control

O=C1N[C@@H]([C@H]2CC[C@H](Cl)CN2)C(=O)N[C@H]1[C@H]1CC[C@H](Cl)CN1
T/C (dose: 1.44 mg/kg/injection, schedule: Q04DX003 (ip), vehicle: water): 158 % of control | T/C (dose: 2.4 mg/kg/injection, schedule: Q04DX003 (ip), vehicle: water): 213 % of control | T/C (dose: 4.0 mg/kg/injection, schedule: Q04DX003 (ip), vehicle: water): 221 % of control | T/C (dose: 6.67 mg/kg/injection, schedule: Q04DX003 (ip), vehicle: water): 122 % of control

Cc1c2ccncc2c(C)c2c1[nH]c1ccccc12
T/C (dose: 13.0 mg/kg/injection, schedule: Q04DX003 (ip), vehicle: water): 112 % of control | T/C (dose: 21.6 mg/kg/injection, schedule: Q04DX003 (ip), vehicle: water): 104 % of control and 109 % of control | T/C (dose: 36.0 mg/kg/injection, schedule: Q04DX003 (ip), vehicle: water): 110 % of control and 117 % of control

Cc1c2oc3c(C)ccc(C(=O)NC4C(=O)NC(C(C)C)C(=O)N5CCC5C(=O)N(C)CC(=O)N(C)C(C(C)C)C(=O)OC4C)c3nc-2c(C(=O)NC2C(=O)NC(C(C)C)C(=O)N3CCC3C(=O)N(C)CC(=O)N(C)C(C(C)C)C(=O)OC2C)c(N)c1=O (stereo not drawn) (I: TV[Aze][Sar][NMeV] / II: TV[Aze][Sar][NMeV]; ester I:1-I:C, II:1-II:C; linker I:N-II:N via Actinocin(9to1); configuration not given here)
T/C (dose: 216.0 micrograms/kg/injection, schedule: Q01DX003 (ip), vehicle: saline + alcohol): 110 % of control | T/C (dose: 360.0 micrograms/kg/injection, schedule: Q01DX003 (ip), vehicle: saline + alcohol): 103 % of control | T/C (dose: 600.0 micrograms/kg/injection, schedule: Q01DX003 (ip), vehicle: saline + alcohol): 104 % of control | T/C (dose: 1000.0 micrograms/kg/injection, schedule: Q01DX003 (ip), vehicle: saline + alcohol): 86 % of control

COc1cccc2c1C(=O)c1c(O)c3c(c(O)c1C2=O)C[C@@](O)(C(C)=O)C[C@@H]3OC1CC(N(C)C)C(O)C(C)O1 (stereo partly drawn)
T/C (dose: 3.46 mg/kg/injection, schedule: Q04DX003 (ip), vehicle: water): 114 % of control | T/C (dose: 5.76 mg/kg/injection, schedule: Q04DX003 (ip), vehicle: water): 121 % of control | T/C (dose: 9.6 mg/kg/injection, schedule: Q04DX003 (ip), vehicle: water): 113 % of control | T/C (dose: 16.0 mg/kg/injection, schedule: Q04DX003 (ip), vehicle: water): 104 % of control

CCC1(O)CC2CN(CCc3c([nH]c4ccccc34)C(C(=O)OC)(c3cc4c(cc3OC)N(C)C3C(O)(C(N)=O)C(O)C5(CC)C=CCN6CCC43C65)C2)C1 (stereo not drawn) (tested in a mixture with another compound)
T/C (dose: 0.65 mg/kg/injection, schedule: Q04DX003 (ip), vehicle: saline): 107 % of control | T/C (dose: 1.08 mg/kg/injection, schedule: Q04DX003 (ip), vehicle: saline): 111 % of control | T/C (dose: 1.8 mg/kg/injection, schedule: Q04DX003 (ip), vehicle: saline): 101 % of control | T/C (dose: 3.0 mg/kg/injection, schedule: Q04DX003 (ip), vehicle: saline): 86 % of control

COC(=O)C[C@](O)(CCCC(C)(C)O)C(=O)O[C@@H]1C(OC)=C[C@]23CCCN2CCc2cc4c(cc2[C@H]13)OCO4
T/C (dose: 0.72 mg/kg/injection, schedule: Q04DX003 (ip), vehicle: acid diluted with saline): 100 % of control | T/C (dose: 1.2 mg/kg/injection, schedule: Q04DX003 (ip), vehicle: acid diluted with saline): 103 % of control | T/C (dose: 2.0 mg/kg/injection, schedule: Q04DX003 (ip), vehicle: acid diluted with saline): 110 % of control

COc1ccc(CC2C(=O)NC(C)C(=O)N(C)C3Cc4ccc(cc4)Oc4cc(ccc4O)CC(C(=O)NC(C)C(=O)NC(C)C(=O)N2C)N(C)C3=O)cc1 (stereo not drawn)
T/C (dose: 4.32 mg/kg/injection, schedule: Q04DX003 (ip), vehicle: other): 109 % of control | T/C (dose: 7.2 mg/kg/injection, schedule: Q04DX003 (ip), vehicle: other): 94 % of control | T/C (dose: 12.0 mg/kg/injection, schedule: Q04DX003 (ip), vehicle: other): 88 % of control

CN(Cc1cnc2nc(N)nc(N)c2n1)c1ccc(C(=O)N[C@@H](CCC(=O)O)C(=O)O)cc1
T/C (dose: 10.8 mg/kg/injection, schedule: Q04DX003 (ip), vehicle: sodium bicarbonate): 158 % of control | T/C (dose: 18.0 mg/kg/injection, schedule: Q04DX003 (ip), vehicle: sodium bicarbonate): 188 % of control | T/C (dose: 30.0 mg/kg/injection, schedule: Q04DX003 (ip), vehicle: sodium bicarbonate): 166 % of control | T/C (dose: 50.0 mg/kg/injection, schedule: Q04DX003 (ip), vehicle: sodium bicarbonate): 111 % of control

Reference: PubChem BioAssay AID182 (DTP/NCI, 2004)
